Data taken from patent US7439271B2, “Reduction of hair growth” (The Gillette Company, priority 2001, dated 2008).

Columns and labels:
[1] = tested on: human hair follicles; assay: Human hair follicle growth assay; type: cell-based; details: day 0 to day 6
From the text: Tissue source—Human skin was obtained from a plastic surgeon as a by-product of face-lift procedures. Immediately after removal, the skin was placed in Williams E medium containing antibiotics and refrigerated. The Williams E medium is a commercially obtained medium which has been formulated with essential nutrients for maintaining viability of tissues or cells such as of hair follicle in an in-vitro environment.
Hair Follicle Isolation and Culture—Human hair follicles in growth phase (anagen) were isolated from face-lift tissue under a dissecting scope using a scalpel and watchmakers forceps. The skin was sliced into thin strips exposing 2-3 rows of follicles that could readily be dissected. Follicles were placed into 0.5 ml Williams E medium supplemented with 2 mM L-glutamine, 10 μg/ml insulin, 100 ng/ml hydrocortisone, 100 units penicillin, 0.1 mg/ml streptomycin and 0.25 μg/ml amphotericin B. The follicles were incubated in 24 well plates (1 follicle/well) at 37° C. in an atmosphere of 5% CO2 and 95% air. Hair follicles were videorecorded in the 24-well plates under the dissecting scope under a power of 20×. Typically, hair follicle lengths were measured on day 0 (day follicles were placed in culture) and again on day 7. When testing compounds, the compound was included in the culture medium from time 0 and remained in the medium throughout the course of the experiment.
In this system follicle cells differentiate to form hair fiber and increase in length at a rate not dissimilar from that of humans, in vivo. Typically, hair fiber from these in-vitro follicles grow about 0.3 mm/day. […] This model of human hair growth is capable of identifying inhibitors of hair growth. The selective telomerase inhibitors -I, -IV and -V were obtained from Calbiochem, La Jolla, Calif. The data in Tables II-VI below show dose-dependent inhibition of human hair follicle growth by various compounds.

[2] = tested on: flank organ hair growth; assay: Golden Syrian hamster assay (flank organ hair mass); type: in vivo; details: topical, thirteen applications; for % Inhibition (hair mass reduction): vs vehicle treated side
From the text: Male intact Golden Syrian hamsters are considered acceptable models for human beard hair growth in that they display oval shaped flank organs, one on each side, each about 8 mm. in major diameter. These organs produce fine light colored hair typical of the animal pelage found on the body. In response to androgens the flank organs produce dark coarse hair similar to male human beard hair. To evaluate the effectiveness of a composition in reducing hair growth, the flank organs of each of a group of hamsters are depilated by applying a thioglycolate based chemical depilatory (Surgex) and/or shaved. To one organ of each animal 10 μl. of vehicle alone once a day is applied, while to the other organ of each animal an equal amount of vehicle containing the compound under evaluation is applied. After thirteen applications (one application per day for five days a week), the flank organs are shaved and the amount of recovered hair (hair mass) from each is weighed. Percent-reduction of hair growth is calculated by subtracting the hair mass (mg) value of the test compound treated side from the hair mass value of the vehicle treated side; the delta value obtained is then divided by the hair mass value of the vehicle treated side, and the resultant number is multiplied by 100.
The above-described assay will be referred to herein as the “Golden Syrian hamster” assay. Preferred compositions provide a reduction in hair growth of at least about 15% and more preferably at least about 20%, when tested in the Golden Syrian hamster assay. Compositions described in Example 1 (above) were tested in the Golden Syrian hamster assay. […] AZT, a well-characterized inhibitor of reverse transcriptase, inhibits telomerase by blocking the […] of the enzyme.

Row | Structure (SMILES) | Length Increase (mm) ([1]; 100 μM) | % Inhibition of human hair growth ([1]; 10 μM) | Length Increase (mm) ([1]; 10 μM) | % Inhibition of human hair growth ([1]; 100 μM) | also measured
1 | CC1COc2c(N3CCN(C)CC3)c(F)cc3c(=O)c(C(=O)O)cn1c23 (centres unmarked) [Ofloxacin, ofloxacin] | 1.16 ± .12 mm |  |  |  | Length Increase (mm) ([1]; 0.01 μM): 1.51 ± .24 mm; Length Increase (mm) ([1]; 0.1 μM): 1.16 ± .12 mm; Length Increase (mm) ([1]; 1.0 μM, separate control 1.40 ± .17 mm): 0.43 ± .11 mm; inhibition at 0.01 µM ([1]; Homo sapiens, 0.01 μM): 10 ± 14%; inhibition at 0.1 µM ([1]; Homo sapiens, 0.1 μM): 30 ± 7%; inhibition at 1 µM ([1]; Homo sapiens, 1.0 μM, separate control 1.40 ± .17 mm): 69 ± 8%; inhibition at 100 µM ([1]; Homo sapiens, 100 μM): 31 ± 7%; Left (mg): hair mass for vehicle with test compound ([2]; dose 5%): 1.56 ± .24 mg; % Inhibition (hair mass reduction) ([2]; dose 5%): 39 ± 7%
2 | C[n+]1ccc(-c2c3nc(c(-c4cc[n+](C)cc4)c4ccc([nH]4)c(-c4cc[n+](C)cc4)c4nc(c(-c5cc[n+](C)cc5)c5ccc2[nH]5)C=C4)C=C3)cc1 [TMPyP4, meso-5,10,15,20-tetrakis-(N-methyl-4-pyridy)porphine] |  |  |  |  | % Inhibition of human hair growth ([1]; 73 μM): 52 ± 9%; Length Increase (mm) ([1]; 73 μM): .468 ± .09 mm; Left (mg): hair mass for vehicle with test compound ([2]; dose 1%): 1.73 ± .23 mg; % Inhibition (hair mass reduction) ([2]; dose 1%): 28 ± 8%
3 | O=C1c2ccc3c4ccc5c6c(ccc(c7ccc(c2c37)C(=O)N1CCN1CCCCC1)c64)C(=O)N(CCN1CCCCC1)C5=O [Telomerase Inhibitor IV, N,N′-bis[2-(1-piperidino)ethyl]-3,4,9,10-perylenetetracarboxylic diimide] | 0.80 ± .12 mm | 10 ± 10% | 1.39 ± .16 mm | 48 ± 8% | 
4 | C[N+]1(CCC(=O)Nc2ccc3c(c2)C(=O)c2ccc(NC(=O)CC[N+]4(C)CCCCC4CO)cc2C3=O)CCCCC1CO.[I-].[I-] (centres unmarked) [Telomerase Inhibitor I] | .286 ± .09 mm | 34 ± 6% | 1.18 ± .10 mm | 84 ± 5% | 
5 | O=C(CCN1CCCCC1)Nc1ccc2c(c1)C(=O)c1ccc(NC(=O)CCN3CCCCC3)cc1C2=O [Telomerase Inhibitor V, 2,6-bis[3-(N-piperidino)propionamido]anthracene-9,10-dione] | 0.25 ± .30 mm | 14 ± 8% | 1.32 ± .13 mm | 68 ± 19% | 
